Test results reported in ChEMBL document CHEMBL5608163, “Structure modification of anoplin for fighting resistant bacteria” (Eur J Med Chem, 2024).
In brackets after ≈: the same amount, converted by molar mass. Square brackets hold non-standard residues; d marks the D form. Peptide text beside a SMILES is read from it. * marks the point of attachment. Heptadecanoyl = CCCCCCCCCCCCCCCCC(=O)*; hIle = CC[C@H](C)C[C@H](N)C(=O)O; Cha = N[C@@H](CC1CCCCC1)C(=O)O

Tests used:
Staphylococcus aureus [1] = assay: Antibacterial activity against Staphylococcus aureus ATCC 25923 assessed as reduction in bacterial growth incubated for 48 hrs by Mueller-Hinton broth based microdilution method; assay type: functional
Escherichia coli [2] = assay: Antibacterial activity against Escherichia coli ATCC 25922 assessed as reduction in bacterial growth incubated for 48 hrs by Mueller-Hinton broth based microdilution method; assay type: functional
[3] = Hemolytic activity in human erythrocyte incubated for 1 hr; assay type: toxicity, cell-based; details: erythrocytes
Staphylococcus aureus [4] = assay: Antibacterial activity against methicillin resistant Staphylococcus aureus ATCC 33591 assessed as inhibition of bacterial growth incubated for 16 to 20 hrs by broth micro-dilution method; assay type: functional; details: time 16-20 hrs
Enterococcus faecium [5] = assay: Antibacterial activity against Vancomycin resistant Enterococcus faecium ATCC 700221 assessed as inhibition of bacterial growth incubated for 16 to 20 hrs by broth micro-dilution method; assay type: functional; details: time 16-20 hrs
Erythrocyte = assay: Hemolytic activity in erythrocytes (unknown origin); assay type: toxicity, cell-based
[6] = test system: Mycolicibacterium smegmatis; assay: Antimycobacterial activity against Mycobacterium smegmatis mc2 155 assessed as reduction in bacterial cell growth incubated for 24 hrs by resazurin dye based broth microdilution method; assay type: functional
Bacillus subtilis [7] = assay: Antimicrobial activity against Bacillus subtilis assessed as microbial growth inhibition incubated for 24 hrs by broth micro-dilution method; assay type: functional
Escherichia coli [8] = assay: Antibacterial acitivity against Escherichia coli DH5a assessed as bacterial growth inhibition incubated for 24 hrs by broth micro-dilution method; assay type: functional
Zymomonas mobilis = assay: Antibacterial activity against Zymomonas mobilis ATCC 10988 assessed as reduction in bacterial growth incubated for 24 hrs by broth micro-dilution method; assay type: functional
Pseudomonas aeruginosa [9] = assay: Antimicrobial activity against Pseudomonas aeruginosa assessed as inhibition of microbial growth incubated for 24 hrs by microdilution method; assay type: functional
[10] = Hemolytic activity against human Red blood cells assessed as cell lysis; assay type: toxicity, cell-based, Erythrocyte
[11] = Hemolytic activity in mouse RBC incubated for 1 hr; assay type: toxicity, cell-based, Erythrocyte; details: red blood cells
[12] = Hemolytic activity in human RBC; assay type: toxicity, cell-based, Erythrocyte; details: red blood cells
Staphylococcus aureus [13] = assay: Antimicrobial activity against Staphylococcus aureus ATCC 25923 assessed as reduction in microbial growth incubated for 18 to 20 hrs by Mueller-Hinton broth based microdilution method; assay type: functional; details: time 18-20 hrs
Enterococcus faecium [14] = assay: Antimicrobial activity against Enterococcus faecium assessed as reduction in microbial growth incubated for 18 to 20 hrs by Mueller-Hinton broth based microdilution method; assay type: functional; details: time 18-20 hrs
Escherichia coli [15] = assay: Antibacterial activity against Escherichia coli ATCC 25922 assessed as bacterial growth inhibition incubate for 18 to 20 hrs by MH broth based assay; assay type: functional; details: time 18-20 hrs
[16] = Hemolytic activity against Red blood cells (unknown origin) incubated for 1 hr by spectrophotometric analysis; assay type: toxicity, cell-based, Erythrocyte
Staphylococcus aureus [17] = assay: Antibacterial activity against Staphylococcus aureus assessed as bacterial growth inhibition incubated for 20 hrs by broth microdilution assay; assay type: functional
Bacillus subtilis [18] = assay: Antibacterial activity against Bacillus subtilis assessed as reduction in bacterial growth incubated for 20 hrs by broth microdilution assay; assay type: functional
Escherichia coli [19] = assay: Antibacterial activity against Escherichia coli assessed as reduction in bacterial growth incubated for 20 hrs by broth microdilution assay; assay type: functional
Pseudomonas aeruginosa [20] = assay: Antibacterial activity against Pseudomonas aeruginosa assessed as reduction in bacterial growth incubated for 20 hrs by broth microdilution assay; assay type: functional

`CCCCCCCCCCCCCCCCC(=O)NCC(=O)N[C@@H](CC(C)C)C(=O)N[C@@H](CC(C)C)C(=O)N[C@@H](CCCCN)C(=O)N[C@@H](CCCNC(=N)N)C(=O)N[C@H](C(=O)N[C@@H](CCCCN)C(=O)N[C@H](C(N)=O)[C@@H](C)O)[C@@H](C)CC` (Heptadecanoyl-GLLKRIKT-NH2) showed an MIC (Staphylococcus aureus [1]) of 1.4 µM (≈ 1.65 µg/mL), an MIC (Escherichia coli [2]) of 2.8 µM (≈ 3.3 µg/mL) and an HC50 at 1 h [3] of 29 µM.
In the case of `CC(C)C[C@H](NC(=O)[C@H](CC(C)C)NC(=O)[C@H](CCCCN)NC(=O)[C@H](CCCCN)NC(=O)[C@@H](Cc1ccc2ccccc2c1)NC(=O)[C@H](CCCNC(=N)N)NC(=O)[C@H](CCCCN)NC(=O)[C@H](CC(C)C)NC(=O)[C@H](CC1CCCCC1)NC(=O)CN)C(=O)O`, the MIC (Staphylococcus aureus [4]) is reported as 9.5 µM (≈ 12.4 µg/mL), the MIC (Enterococcus faecium [5]) is reported as 3.2 µM (≈ 4.18 µg/mL) and the HC10 (Erythrocyte) is reported as 27 µM.
`CC[C@H](C)[C@H](NC(=O)[C@H](CCCCN)NC(=O)[C@H](CCCCN)NC(=O)[C@H](CC(C)C)NC(=O)[C@H](CC(C)C)NC(=O)CN)C(=O)N[C@@H](CCCCN)C(=O)N[C@@H](CCCNC(=N)N)C(=O)N[C@@H](CC(C)C)C(=O)N[C@@H](CC(C)C)C(N)=O` (H-GLLKKIKRLL-NH2) gave an MIC [6] of 0.9 µM (≈ 1.06 µg/mL), an MIC (Bacillus subtilis [7]) of 170 µM (≈ 200 µg/mL) and an MIC (Escherichia coli [8]) of 170 µM (≈ 200 µg/mL). For the same compound, the MIC (Zymomonas mobilis) was 4.2 µM (≈ 4.96 µg/mL), the MIC (Pseudomonas aeruginosa [9]) was 5.9 µM and the HC50 [10] was > 170 µM.
`CC[C@H](C)C[C@H](NC(=O)[C@H](CCCNC(=N)N)NC(=O)[C@H](CCCCN)NC(=O)[C@H](CC(C)C)NC(=O)[C@H](CC1CCCCC1)NC(=O)CN)C(=O)N[C@@H](CCCCN)C(=O)N[C@H](C(=O)N[C@@H](CC(C)C)C(=O)N[C@@H](CC1CCCCC1)C(N)=O)[C@@H](C)O` (H-G[Cha]LKR[hIle]KTL[Cha]-NH2) gave an HC50 at 1 h [11] of 31.2 µM, an HC50 [12] of 31.2 µM and an MIC (Staphylococcus aureus [13]) of 5.3 µM. It also gave an MIC (Enterococcus faecium [14]) of 3.2 µM and an MIC (Escherichia coli [15]) of 6.25 µM (≈ 7.8 µg/mL).
Work on `CC[C@H](C)[C@H](NC(=O)[C@H](CCCCN)NC(=O)[C@H](CCCCN)NC(=O)[C@H](C)NC(=O)[C@H](CC(C)C)NC(=O)[C@H](C)NC(=O)[C@H](C)NC(=O)[C@H](CC(C)C)NC(=O)[C@H](C)NC(=O)[C@H](CCCCN)NC(=O)[C@H](CC(C)C)NC(=O)[C@H](CC(N)=O)NC(=O)[C@@H](NC(=O)[C@@H]1CCCN1C(=O)[C@H](CC(C)C)NC(=O)[C@H](CC(C)C)NC(=O)[C@@H](NC(=O)[C@H](CCCCN)NC(=O)[C@@H](NC(=O)[C@H](CCCNC(=N)N)NC(=O)[C@H](CCCCN)NC(=O)[C@H](CC(C)C)NC(=O)[C@H](CC(C)C)NC(=O)CN)[C@@H](C)CC)[C@@H](C)O)[C@@H](C)CC)C(=O)N[C@@H](CC(C)C)C(N)=O` (H-GLLKRIKTLLPINLKALAALAKKIL-NH2) yielded an HC50 at 1 h [16] of 83.8 µM, an MIC (Staphylococcus aureus [17]) of 4 µM (≈ 10.9 µg/mL) and an MIC (Bacillus subtilis [18]) of 2 µM (≈ 5.43 µg/mL). For the same compound, the MIC (Escherichia coli [19]) was 2 µM (≈ 5.43 µg/mL) and the MIC (Pseudomonas aeruginosa [20]) was 2 µM (≈ 5.43 µg/mL).
`CCCCCCCCCCCCCCCCC(=O)NCC(=O)N[C@@H](CC(C)C)C(=O)N[C@@H](CC(C)C)C(=O)N[C@@H](CCCCN)C(=O)N[C@@H](CCCNC(=N)N)C(=O)N[C@H](C(=O)N[C@@H](CCCCN)C(=O)N[C@H](C(=O)N[C@@H](CC(C)C)C(=O)N[C@@H](CC(C)C)C(=O)O)[C@@H](C)O)[C@@H](C)CC` (Heptadecanoyl-GLLKRIKTLL-OH) gave an MIC (Staphylococcus aureus [1]) of 0.32 µM (≈ 0.45 µg/mL), an MIC (Escherichia coli [2]) of 0.32 µM (≈ 0.45 µg/mL) and an HC50 at 1 h [3] of 14.8 µM.
Work on `CC[C@H](C)[C@H](NC(=O)[C@H](CCCCN)NC(=O)[C@H](CC(C)C)NC(=O)[C@H](CC(C)C)NC(=O)CN)C(=O)N[C@H](C(=O)N[C@@H](CCCCN)C(=O)N[C@@H](CCCNC(=N)N)C(=O)N[C@@H](CC(C)C)C(=O)N[C@@H](CC(C)C)C(N)=O)[C@@H](C)CC` (H-GLLKIIKRLL-NH2) yielded an MIC [6] of 4.3 µM (≈ 5.01 µg/mL), an MIC (Bacillus subtilis [7]) of 8.6 µM (≈ 10 µg/mL) and an MIC (Escherichia coli [8]) of 172 µM (≈ 200 µg/mL). The MIC (Zymomonas mobilis) was 33.9 µM (≈ 39.5 µg/mL), the MIC (Pseudomonas aeruginosa [9]) was 2.6 µM and the HC50 [10] was > 172 µM.
Compound `CC[C@@H](C)[C@@H](NC(=O)[C@H](CCCCN)NC(=O)[C@H](CCCCN)NC(=O)[C@H](CC(C)C)NC(=O)[C@H](CC(C)C)NC(=O)CN)C(=O)N[C@@H](CCCCN)C(=O)N[C@H](C(=O)N[C@@H](CC(C)C)C(=O)N[C@@H](CC(C)C)C(N)=O)[C@@H](C)O` has an MIC (Staphylococcus aureus [4]) of 1020 µM (≈ 1150 µg/mL), an MIC (Enterococcus faecium [5]) of 492 µM (≈ 554 µg/mL) and an HC10 (Erythrocyte) of 7209 µM.
Work on `CC[C@H](C)[C@H](NC(=O)CCCCCNC(=O)[C@H](CC(C)C)NC(=O)[C@H](CC(C)C)NC(=O)[C@@H](NC(=O)[C@H](CCCCN)NC(=O)[C@@H](NC(=O)[C@H](CCCNC(=N)N)NC(=O)[C@H](CCCCN)NC(=O)[C@H](CC(C)C)NC(=O)[C@H](CC(C)C)NC(=O)CN)[C@@H](C)CC)[C@@H](C)O)C(=O)N[C@@H](CC(N)=O)C(=O)N[C@@H](CC(C)C)C(=O)N[C@@H](CCCCN)C(=O)N[C@@H](C)C(=O)N[C@@H](CC(C)C)C(=O)N[C@@H](C)C(=O)N[C@@H](C)C(=O)N[C@@H](CC(C)C)C(=O)N[C@@H](C)C(=O)N[C@@H](CCCCN)C(=O)N[C@@H](CCCCN)C(=O)N[C@H](C(=O)N[C@@H](CC(C)C)C(N)=O)[C@@H](C)CC` yielded an HC50 at 1 h [16] of 60.2 µM, an MIC (Staphylococcus aureus [17]) of 4 µM (≈ 10.9 µg/mL) and an MIC (Bacillus subtilis [18]) of 2 µM (≈ 5.46 µg/mL). For the same compound, the MIC (Escherichia coli [19]) was 2 µM (≈ 5.46 µg/mL) and the MIC (Pseudomonas aeruginosa [20]) was 2 µM (≈ 5.46 µg/mL).
